Experimental data taken from patent US11091451B2, “SHMT inhibitors and uses thereof” (Raze Therapeutics, Inc., priority 2016, dated 2021).

Legend:
[1] = biological target: human cytosolic Serine Hydroxymethyl transferase 1 (SHMT1) (Homo sapiens (Human), UniProt P34896); assay: SHMT1 activity inhibition assay (serine production from glycine and CH2-THF, mass spectroscopy); type: biochemical; conditions: 60 minutes at room temperature
From the text: (§1) Full length human cytosolic Serine Hydroxymethyl transferase 1 (SHMT1, residues 1-483 in Uniport ID P34896) was expressed as an N-terminal His6 tagged protein and purified in E. coli using nickel capture followed by size-exclusion chromatography. Human mitochondrial SHMT2 (residues 30-504 in Uniprot ID P34897) with mitochondrial leader sequence deleted was expressed as an N-terminal His6 tagged protein and purified in E. coli using nickel capture followed by size-exclusion chromatography.
(§2) Serine hydroxymethyltransferases catalyze the reversible hydroxymethylation of glycine to serine, with methylene tetrahydrofolate (CH2-THF) providing the additional carbon. SHMT1 and SHMT2 activity was determined by measuring serine production from glycine and CH2-THF using mass spectroscopy. Briefly, 15 ul of 0.5 mM glycine and 0.2 mM CH2-THF in 20 mM TEA, pH8.0, 0.2 mM NADPH were added to 384 well plate containing 0, 0.05 mM, 0.005 mM or 0.0005 mM of inhibitor. 15 ul of SHMT1 or 2 were added to initiate the reaction. The plate was incubated for 60 minutes at room temperature and the reaction was quenched by the addition of 30 ul of 10% trichloroacetic acid. Serine produced was analyzed using Rapidfire 360 and API4000^+ in the positive ion mode.

[2] = biological target: Human mitochondrial SHMT2 (Homo sapiens (Human), UniProt P34897); assay: SHMT2 activity inhibition assay (serine production from glycine and CH2-THF, mass spectroscopy); type: biochemical; conditions: 60 minutes at room temperature
From the text: as §1
as §2, with “15 ul of SHMT1 or 2 were added to initiate the reaction.” left out

Sequence of human cytosolic Serine Hydroxymethyl transferase 1 (SHMT1) (P34896 whole entry, the tested form may be a part): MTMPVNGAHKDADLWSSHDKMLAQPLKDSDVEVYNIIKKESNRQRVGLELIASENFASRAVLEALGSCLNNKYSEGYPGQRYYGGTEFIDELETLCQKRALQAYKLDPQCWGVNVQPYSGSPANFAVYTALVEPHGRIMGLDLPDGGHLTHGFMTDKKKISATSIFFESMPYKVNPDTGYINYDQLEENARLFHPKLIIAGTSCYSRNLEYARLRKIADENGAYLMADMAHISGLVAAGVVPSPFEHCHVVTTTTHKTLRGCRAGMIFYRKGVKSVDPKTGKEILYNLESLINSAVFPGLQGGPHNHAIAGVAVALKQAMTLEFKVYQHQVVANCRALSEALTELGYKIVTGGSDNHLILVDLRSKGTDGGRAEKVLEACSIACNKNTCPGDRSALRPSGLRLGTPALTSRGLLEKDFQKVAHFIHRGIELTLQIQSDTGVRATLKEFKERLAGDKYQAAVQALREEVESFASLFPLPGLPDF
Sequence of Human mitochondrial SHMT2 (P34897 30-504): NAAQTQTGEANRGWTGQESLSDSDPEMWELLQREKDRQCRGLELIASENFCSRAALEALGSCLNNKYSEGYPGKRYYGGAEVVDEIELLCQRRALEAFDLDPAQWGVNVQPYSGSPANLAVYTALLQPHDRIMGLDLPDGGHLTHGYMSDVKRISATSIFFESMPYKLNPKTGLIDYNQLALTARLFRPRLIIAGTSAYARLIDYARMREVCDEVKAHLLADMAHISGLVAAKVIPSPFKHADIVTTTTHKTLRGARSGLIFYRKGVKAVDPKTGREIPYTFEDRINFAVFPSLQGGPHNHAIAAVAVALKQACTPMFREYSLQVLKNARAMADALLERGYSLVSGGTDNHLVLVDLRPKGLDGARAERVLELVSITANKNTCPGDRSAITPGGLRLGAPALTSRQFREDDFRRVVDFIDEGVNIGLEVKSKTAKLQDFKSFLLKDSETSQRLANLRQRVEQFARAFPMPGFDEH

Structure (SMILES)	IC50 [1] [µM]	IC50 [2] [µM]
CC(C)(NC(=O)Cc1csc(-c2ccc(Cl)cc2C2CCNCC2)n1)C(=O)O [Compound I-31, 2-[[2-[2-[4-Chloro-2-(4-piperidyl)phenyl]thiazol-4-yl]acetyl]amino]-2-methyl-propanoic Acid]	10 to 100	1 to 10
O=C(O)CNC(=O)Cc1csc(-c2ccc3c(c2)OCCO3)n1 [Compound I-62, 2-[2-[2-(2,3-dihydro-1,4-benzodioxin-6-yl)-1,3-thiazol-4-yl]acetamido]acetic Acid]	100 to 500	100 to 500
CC(C)Cc1cc(Cl)ccc1-c1nc(CC(=O)NC(C)(C)C(=O)O)cs1 [Compound I-21]	1 to 10	< 1
CC(C)(NC(=O)Cc1cccc(-c2ccc(Cl)cc2)c1)C(=O)O [Compound I-30, 2-[2-[3-(4-chlorophenyl)phenyl]acetamido]-2-methylpropanoic Acid]	10 to 100	1 to 10
CC(C)(NC(=O)Cc1cccc(-c2ccc(Cl)cc2-c2ccc(F)cc2)c1)C(=O)O [Compound I-15, 2-[[2-[3-[4-Chloro-2-(4-fluorophenyl)phenyl]phenyl]acetyl]amino]-2-methyl-propanoic Acid]	1 to 10	< 1
Cc1cccc(-c2cc(Cl)ccc2-c2nc(CC(=O)NC(C)(C)C(=O)O)cs2)c1C [Compound I-9]	< 1	< 1
Cc1ccc(-c2cc(Cl)ccc2-c2cccc(CC(=O)NC(C)(C)C(=O)O)c2)cc1 [Compound I-3, 2-[[2-[3-[4-Chloro-2-(p-tolyl)phenyl]phenyl]acetyl]amino]-2-methyl-propanoic Acid]	< 1	< 1
CC(C)(NC(=O)Cc1csc(-c2ccc(Cl)cc2CC2CCC2)n1)C(=O)O [Compound I-10, 2-[[2-[2-[4-Chloro-2-(cyclobutylmethyl)phenyl]thiazol-4-yl]acetyl]amino]-2-methyl-propanoic Acid]	< 1	< 1
CC(=O)N1CCC(c2cc(Cl)ccc2-c2nc(CC(=O)NC(C)(C)C(=O)O)cs2)CC1 [Compound I-11, 2-[[2-[2-[2-(1-Acetyl-4-piperidyl)-4-chloro-phenyl]thiazol-4-yl]acetyl]amino]-2-methyl-propanoic Acid]	1 to 10	< 1
CC(C(=O)NCC(=O)O)c1csc(-c2ccc(Cl)cc2Cl)n1 (stereo not drawn) [Compound I-38]	10 to 100	10 to 100
O=C(Cc1csc(-c2ccc(Cl)cc2Cl)n1)NC1(C(=O)O)CC1 [Compound I-45]	10 to 100	10 to 100
CC(C)(C(=O)NCC(=O)O)c1csc(-c2ccc(Cl)cc2Cl)n1 [Compound I-64, 2-[2-[2-(2,4-dichlorophenyl)-1,3-thiazol-4-yl]-2-methylpropanamido]acetic Acid]	100 to 500	100 to 500
CCc1cc(Cl)ccc1-c1nc(CC(=O)NC(C)(C)C(=O)O)cs1 [Compound I-27]	10 to 100	1 to 10
O=C(O)CNC(=O)C(c1ccccc1)c1csc(-c2ccc(Cl)cc2Cl)n1 (stereo not drawn) [Compound I-66]	100 to 500	> 500
O=C(O)CNC(=O)Cc1csc(-c2cccc(Cl)c2Cl)n1 [Compound I-59]	100 to 500	100 to 500
CC(C)(NC(=O)Cc1csc(-c2ccc(Cl)cc2-c2cccc3c2COC3)n1)C(=O)O [Compound I-7]	< 1	< 1
CC(C)(NC(=O)Cc1csc(-c2ccc(Cl)cc2Cl)n1)C(=O)O [Compound I-24]	1 to 10	< 1
CC(C)c1cc(Cl)ccc1-c1nc(CC(=O)NC(C)(C)C(=O)O)cs1 [Compound I-25]	1 to 10	< 1
O=C(O)CNC(=O)Cc1cccc(-c2ccc(Cl)cc2Cl)c1 [Compound I-41]	10 to 100	10 to 100
O=C(O)CNC(=O)Cc1csc(-c2ccc(Cl)cc2Cl)n1 [Compound I-46]	10 to 100	10 to 100
O=C(Cc1csc(-c2ccc(Cl)cc2Cl)n1)NC1(C(=O)O)CCC1 [Compound I-28]	10 to 100	1 to 10
CC(C)(NC(=O)Cc1cccc(-c2ccc(Cl)cc2-c2cccc(C(N)=O)c2)c1)C(=O)O [Compound I-19, 2-[[2-[3-[2-(3-Carbamoylphenyl)-4-chloro-phenyl]phenyl]acetyl]amino]-2-methyl-propanoic Acid]	1 to 10	< 1
CC(C)(NC(=O)Cc1ccnc(-c2ccc(Cl)cc2-c2ccccc2)c1)C(=O)O [Compound I-20]	1 to 10	

Continued, values first:

IC50 [1] [µM]	IC50 [2] [µM]	Structure (SMILES)
< 1	< 1	CC(C)(NC(=O)Cc1csc(-c2ccc(Cl)cc2-c2cccc(C#N)c2)n1)C(=O)O [Compound I-1, 2-[[2-[2-[4-Chloro-2-(3-cyanophenyl)phenyl]thiazol-4-yl]acetyl]amino]-2-methyl-propanoic Acid]
100 to 500	100 to 500	O=C(Cc1csc(-c2ccc(Cl)cc2Cl)n1)N[C@@H](C(=O)O)c1ccccc1 [Compound I-55]
10 to 100	10 to 100	C[C@H](NC(=O)Cc1csc(-c2ccc(Cl)cc2Cl)n1)C(=O)O [Compound I-35]
10 to 100	10 to 100	O=C(O)CNC(=O)Cc1csc(-c2ccc(Cl)cc2-c2ccccc2)n1 [Compound I-34, 2-[2-[2-(4-chloro-2-phenylphenyl)-1,3-thiazol-4-yl]acetamido]acetic Acid]
100 to 500	100 to 500	O=C(Cc1csc(-c2cccc(Br)c2)n1)NC(Cc1ccccc1)C(=O)O (stereo not drawn) [Compound I-60]
< 1	< 1	Cc1cccc(-c2cc(Cl)ccc2-c2nc(CC(=O)NC(C)(C)C(=O)O)cs2)c1 [Compound I-4]
100 to 500	100 to 500	O=C(Cc1csc(-c2ccc(Cl)cc2)n1)N[C@@H](C(=O)O)c1ccccc1 [Compound I-63]
100 to 500	100 to 500	CC(C)[C@H](NC(=O)Cc1csc(-c2ccc(Cl)cc2Cl)n1)C(=O)O [Compound I-58]
10 to 100	10 to 100	C[C@H](NC(=O)Cc1csc(-c2cccc(Br)c2)n1)C(=O)O [Compound I-39]
100 to 500	100 to 500	O=C(Cc1csc(-c2cccc(Br)c2)n1)N[C@@H](Cc1ccccc1)C(=O)O [Compound I-52]
1 to 10		COc1ccc(-c2nc(CC(=O)NC(C)(C)C(=O)O)cs2)c(-c2ccccc2)c1 [Compound I-13, 2-[[2-[2-(4-Methoxy-2-phenyl-phenyl)thiazol-4-yl]acetyl]amino]-2-methyl-propanoic Acid]
100 to 500	100 to 500	CC(C)C[C@H](NC(=O)Cc1csc(-c2ccc(Cl)cc2Cl)n1)C(=O)O [Compound I-47]
1 to 10	1 to 10	CC(C)(NC(=O)Cc1cc(-c2ccc(Cl)cc2-c2ccccc2)ccn1)C(=O)O [Compound I-23]
100 to 500	100 to 500	C[C@H](NC(=O)Cc1csc(-c2ccccc2F)n1)C(=O)O [Compound I-71]
1 to 10	< 1	CCc1cccc(-c2cc(Cl)ccc2-c2nc(CC(=O)NC(C)(C)C(=O)O)cs2)c1 [Compound I-12]
< 1	< 1	CC(C)(NC(=O)Cc1csc(-c2ccc(Cl)cc2-c2ccccc2)n1)C(=O)O [Compound I-5]
10 to 100	1 to 10	CC(C)(NC(=O)Cc1ccnc(-c2ccc(Cl)cc2-c2ccccc2)n1)C(=O)O [Compound I-29]
100 to 500	100 to 500	CC(C)c1ccc(-c2nc(CC(=O)N[C@@H](C(=O)O)c3ccccc3)cs2)cc1 [Compound I-54]
100 to 500	100 to 500	CC[C@@H](C)[C@H](NC(=O)Cc1csc(-c2ccc(Cl)cc2Cl)n1)C(=O)O [Compound I-67]
100 to 500	10 to 100	COc1ccccc1-c1nc(CC(=O)N[C@@H](C)C(=O)O)cs1 [Compound I-57]
100 to 500	100 to 500	O=C(Cc1csc(-c2cccc(Cl)c2)n1)N[C@@H](Cc1c[nH]c2ccccc12)C(=O)O [Compound I-49]
100 to 500	10 to 100	COc1ccccc1-c1nc(CC(=O)NC(C)C(=O)O)cs1 (stereo not drawn) [Compound I-61]
10 to 100	100 to 500	NC(=O)NCCC[C@@H](NC(=O)Cc1csc(-c2ccc(F)cc2)n1)C(=O)O [Compound I-44]
10 to 100	10 to 100	CC[C@@H](C)[C@H](NC(=O)Cc1csc(-c2cccc(Cl)c2)n1)C(=O)O [Compound I-32]
100 to 500	100 to 500	O=C(Cc1csc(-c2cccc(Cl)c2)n1)N[C@@H](Cc1ccccc1)C(=O)O [Compound I-68]
10 to 100	10 to 100	O=C(O)CNC(=O)Cc1csc(-c2ccc(Cl)c3ccccc23)n1 [Compound I-40, 2-[2-[2-(4-chloronaphthalen-1-yl)-1,3-thiazol-4-yl]acetamido]acetic Acid]
